Patent US5168102A, “Endocrine manipulation to improve body composition of poultry” (priority 1990, dated 1992)
No end group written: not given here.

How the values were obtained:
[1] = Example 1: growth and feed efficiency of broiler cockerels fed thyroid-active substances with or without daily ncGH injection; type: in vivo, broiler cockerels (Ross X Arbor Acre strain); conditions: for BW (body weight): mean ±SEM; for ADFC (average daily feed consumption) / ADG (average daily weight gain) / FTG (feed-to-gain ratio): 21 days
From the text: (§1) The purpose of this study was to determine the effect manipulating blood levels of thyroid hormones and/or growth hormone on growth performance and body composition of broiler chickens. […] Purified natural chicken growth hormone (ncGH) was obtained from the Research and Education Center, Harbor-UCLA Medical Center, Torrance, Calif. […] The premix (200 g) was then used to prepare 50 kg batches of each experimental diet according to the formula for broiler-finisher ration described in Table 1. The diet containing 0.5% PTU was prepared by mixing 250 g of PTU into 49.75 kg of the basal ration (Table 1).
(§2) Broiler cockerels (Ross X Arbor Acre strain) were raised to 3 weeks-of-age in a battery-brooder and then transferred to wire grow-out cages (4 birds/pen) held in two controlled-environment rooms (10 pens/room). Beginning at 3 weeks of age, eight birds (2 pens of 4 birds) were randomly assigned to each of 10 treatments. The chickens were provided the experimental diets and water ad libitum. […] For injection, the ncGH was reconstituted in sterile 0.025M sodium bicarbonate buffer (pH 9.8). The 10 treatments were administered for 21 days (i.e., from 3 to 6 weeks of age).
(§3) Measurement of body weight and feed consumption at weekly intervals allowed calculation of the average daily gain (ADG, g/bird/day), average daily feed consumption (ADFC, g/bird/day) and the feed-to-gain ratio (FIG, kg feed/kg gain) over the 21 day experimental period. Blood samples were taken each week (4, 5, and 6 weeks) just before (pre-injection) and 4 hours post-injection of ncGH. […] At the conclusion of the study, birds were killed and the carcasses frozen for proximate analysis. The frozen carcasses were ground in a meat grinder and aliquots of each ground carcass taken for determination of moisture, protein, fat and ash by established analytical procedures (Official Method of Analysis, Edition 13, W. Horwitz ed., Association of Official Analytical Chemist, Washington, D.C., 1980). Body composition data are presented as a percent of live weight at 6 weeks-of-age. Least squares regression analysis was used to test for significant differences (P<0.05) due treatment.

[2] = Example 1: body composition (proximate analysis of carcass); type: in vivo, broiler cockerels (Ross X Arbor Acre strain); conditions: for Body composition: Ash / Body composition: Fat / Body composition: Protein / Body composition: Water: N = 8
From the text: as §1, §2, §3

[3] = Example 1: plasma hormone concentrations (radioimmunoassays); conditions: for average plasma T3 level: Group 1; for I/G Molar Ratio / plasma Glucagon (G) / plasma Insulin (I): N = 24
From the text: as §1, §2, §3

[4] = at the doses tested
From the text: Referring now to broiler chickens as a benchmark for the beneficial effects of this invention, it must be noted that these chickens grow from a weight of 30 to 50 grams at hatching to about 1.5-3 or even as much as 5 kilograms of body weight at market age. Of this market weight, 15-20 wt.-% is protein, 2-3 wt.-% is inorganic (showing up as ash in proximate analysis of body composition), and more than 10 wt.-% (e.g. 10-20 wt.-%) is fat, which means that the protein:fat ratio (by weight) is likely to be at or below 1.5:1 and certainly well below 2:1.

[5] = hypothyroid state; cited from earlier work
[6] = supplemented diets; cited from earlier work
receptor = conditions: cited from earlier work
[7] = i.v., 21 days, cited from earlier work; for growth rate and feed efficiency: TRH 1 or 10 μg/kg/day, GRF 10 μg/kg/day, alone or in combination
[8] = injected; commercial preparations from cattle and swine pancreases; cited from earlier work
[9] = Example 2: growth and feed efficiency, dietary T3 and ncGH injection; type: in vivo, broiler cockerels (Ross X Arbor Acre)
Method: (§4) Forty-eight 3-week-old broiler cockerels (Ross X Arbor Acre) were randomly divided into four treatment groups that contained three pens of four birds. The birds were housed in a controlled-environment room under a 20 hour light/4 hour dark cycle with feed and water provided ad libitum.
(§5) The preparation of ncGH used in this study was from the same lot used in Example 1.
(§6) Body weights and feed consumption was determined at weekly intervals although the ADG, ADFC and FTG ratio was determined over the 21 day period. […] At the conclusion of the study (6 weeks-of-age), birds were killed and the abdominal fat removed and weighed. The liver and abdominal fat were returned to the carcass which was frozen for proximate analysis as described in […]

[10] = Example 2: final body weight, liver, abdominal fat and body composition; type: in vivo, broiler cockerels (Ross X Arbor Acre)
Method: as §4, §5, §6

[11] = Example 2: plasma hormone concentrations; type: in vivo, broiler cockerels (Ross X Arbor Acre); conditions: 4 hours post-injection of 100 μg ncGH/kg BW at 4, 5 and 6 weeks
Method: as §4, §5, §6

[12] = injection, finishing pigs; cited from earlier work
[13] = 1 ppm T3, 1 ppm T4, 5 ppm TRH or 0.5% PTU in feed, 3 to 6 weeks of age, Group 1
[14] = Group 1, dietary, 6 weeks-of-age
[15] = Group 2, with daily ncGH injection
[16] = 1 ppm T3 and/or ncGH 100 μg/kg/day, 21 days

## CCCc1cc(=O)[nH]c(=S)[nH]1 [PTU, 6-N-propyl-2-thiouracil]
[1]; [13]
  BW (body weight): 1.42 ± .05 kg
[1]; Group 1, dietary
  effect on growth rate and feed efficiency: depressed growth rate and reduced feed conversion
  ADFC (average daily feed consumption): 92.3 ± 7.9 g/bird/day
  ADG (average daily weight gain): 39.2 ± 4.0 g/bird/day
  FTG (feed-to-gain ratio): 2.36 ± .04 kg feed/kg gain
[1]; vs birds fed CF or thyroid hormones (P<0.05)
  final body weight, reduction: 18%
[2]; [14]
  Body composition: Ash: 2.17 ± .06 % BW
  Body composition: Fat: 18.2 ± .80 % BW
  Body composition: Protein: 17.2 ± .20 % BW
  Body composition: Water: 61.9 ± .73 % BW
[2]; vs CF group
  body fat content, increase: 50%
  effect on body protein, water and ash: at the expense of body ash, protein and water
[3]
  average plasma T3 level: 1.5 ng/mL
[3]; Group 1, dietary
  I/G Molar Ratio: 6.35
  plasma Glucagon (G): 225 pg/mL
  plasma Insulin (I): 2349 pg/mL
[3]; vs CF birds (P<0.05)
  average plasma T3 level, reduction: 53%
[3]; vs CF group (P<0.05)
  plasma I/G molar ratio, fold greater: 2.9 times
[3]; vs CF treatment
  plasma GH level, fold higher: 1.9 times
[3]; vs average of CF and TRH treatments (P<0.05)
  plasma T4 level, reduction: 76%
[4]
  effect on protein:fat ratio: seemed to decrease the protein:fat ratio
[5]
  body fat: increased accumulation of body fat
  plasma insulin levels: elevated plasma insulin levels

## N[C@@H](Cc1cc(I)c(Oc2cc(I)c(O)c(I)c2)c(I)c1)C(=O)O [T4, 3-[4-(4-hydroxy-3,5-diiodophenoxy)-3,5-diiodophenyl]-L-alanine]
[1]; [13]
  BW (body weight): 1.76 ± .04 kg
[1]; Group 1, dietary
  ADFC (average daily feed consumption): 108.4 ± 3.6 g/bird/day
  ADG (average daily weight gain): 51.9 ± 3.3 g/bird/day
[2]; [14]
  Body composition: Ash: 2.35 ± .03 % BW
  Body composition: Fat: 12.9 ± .41 % BW
  Body composition: Protein: 18.2 ± .31 % BW
  Body composition: Water: 65.8 ± .29 % BW
[3]
  average plasma T3 level: 3 ng/mL
[3]; Group 1, dietary
  plasma Glucagon (G): 318 pg/mL
  plasma Insulin (I): 776 pg/mL
[6]
  depressed growth rate in dwarf strains: restored to normal
receptor
  metabolic activity of thyroid hormones: without significant metabolic activity

## NC(=O)[C@@H]1CCCN1C(=O)[C@H](Cc1c[nH]cn1)NC(=O)[C@@H]1CCC(=O)N1 [TRH, L-pyroglutamyl-L-histidyl-L-prolinamide]
[1]; [13]
  BW (body weight): 1.85 ± .08 kg
[1]; Group 1, dietary
  ADFC (average daily feed consumption): 125.2 ± 5.5 g/bird/day
  ADG (average daily weight gain): 56.5 ± 0.2 g/bird/day
  FTG (feed-to-gain ratio): 2.21 ± 0.1 kg feed/kg gain
[1]; vs CF group, not significant
  ADFC rate, increase: 11%
  ADG, increase: 9%
  body weight (BW), increase: 6%
[2]; [14]
  Body composition: Ash: 2.34 ± .06 % BW
  Body composition: Fat: 13.6 ± .88 % BW
  Body composition: Protein: 18.1 ± .21 % BW
  Body composition: Water: 65.5 ± .73 % BW
[2]; vs CF group
  body fat content, increase: 12%
[3]
  average plasma T3 level: 3 ng/mL
[3]; Group 1, dietary
  I/G Molar Ratio: 1.68
  plasma Glucagon (G): 295 pg/mL
  plasma Insulin (I): 814 pg/mL
[4]
  effect on protein:fat ratio: seemed to decrease the protein:fat ratio
[7]
  plasma GH levels: elevated plasma GH levels
  growth rate and feed efficiency: failed to stimulate growth rate or improve feed efficiency

## O=C(O)Cc1cc(I)c(Oc2cc(I)c(O)c(I)c2)c(I)c1 [Tetrac]
receptor
  metabolic activity of thyroid hormones: most active compounds of formula I

## O=C(O)Cc1cc(I)c(Oc2ccc(O)c(I)c2)c(I)c1 [Triac]
receptor
  metabolic activity of thyroid hormones: most active compounds of formula I

## GRF: GH-releasing factor; human GRF is a 44 amino acid polypeptide hormone (YADAIFTNSYRKVLGQLSARKLLQDIMSRQQGESNQERGARARL-NH2; ends and bridges not checked; UniProt P01286 32-75, looked up)
[7]
  plasma GH levels: elevated plasma GH levels
  growth rate and feed efficiency: failed to stimulate growth rate or improve feed efficiency

## glucagon
[8]
  biological and metabolic activity in chickens: the same biological and metabolic activity as endogenous glucagon

B1: GH: Purified natural chicken growth hormone (ncGH) (protein, UniProt P08998 26-216, looked up)
Somatotropin: TFPAMPLSNLFANAVLRAQHLHLLAAETYKEFERTYIPEDQRYTNKNSQAAFCYSETIPAPTGKDDAQQKSDMELLRFSLVLIQSWLTPVQYLSKVFTNNLVFGTSDRVFEKLKDLEEGIQALMRELEDRSPRGPQLLRPTYDKFDIHLRNEDALLKNYGLLSCFKKDLHKVETYLKVMKCRRFGESNCTI
[1]; [15]
  ADFC (average daily feed consumption): 115.8 ± 1.8 g/bird/day
  ADG (average daily weight gain): 57.0 ± 0.4 g/bird/day
  FTG (feed-to-gain ratio): 2.03 ± .02 kg feed/kg gain
[1]; Group 2: daily i.m. 100 ug ncGH/kg with CF, 1 ppm T3, 1 ppm T4 or 5 ppm TRH in feed, 3 to 6 weeks
  BW (body weight): 1.83 ± .04 kg
[1]; vs FTG ratio of CF+BI group (P<0.05)
  feed efficiency, improvement: 9%
[2]; [15]
  Body composition: Ash: 2.20 ± .04 % BW
  Body composition: Fat: 14.5 ± .52 % BW
  Body composition: Protein: 18.1 ± .15 % BW
  Body composition: Water: 64.7 ± .51 % BW
[3]; 4 hours post-injection of 100 μg ncGH/kg BW, Group 2
  average plasma GH concentration: 62 ng/mL
[3]; 4 hours post-injection of 100 μg ncGH/kg BW, Group 2 (P<0.05)
  average plasma GH concentration, fold over pre-injection: 3 times
[3]; [15]
  I/G Molar Ratio: 2.28
  plasma Glucagon (G): 298 pg/mL
  plasma Insulin (I): 1107 pg/mL
[9]; [16]
  ADFC: 115.4 ± 3.5 g/bird/day
  FTG: 2.18 ± .05 kg feed/kg gain
[9]; 1 ppm T3 in feed and/or ncGH 100 μg/kg/day i.m., 3 to 6 weeks, mean ±SEM of 3 pens
  ADG: 53.0 ± 2.8 g/bird/day
[9]; 21 days
  effect on ADG, ADFC and FTG ratio: not affected
[10]; 1 ppm T3 and/or ncGH 100 μg/kg/day, 6 weeks-of-age, N = 12
  Body Weight (BW), final: 1.88 ± .051 kg
[10]; 6 weeks-of-age
  effect on final body weight, relative liver weight, abdominal fat: did not affect growth performance, final body weight, relative liver weight or abdominal fat content
[10]; N = 12
  Abdominal Fat, relative weight: 2.56 ± .178 % BW
  Body composition: Ash: 2.23 ± .058 % BW
  Body composition: Fat: 15.9 ± .32 % BW
  Body composition: Protein: 17.0 ± .17 % BW
  Body composition: Water: 63.7 ± .33 % BW
  Liver, relative weight: 2.74 ± .102 % BW
[11]
  average plasma GH concentration, fold over pre-injection: 4 times
[4]
  effect on protein:fat ratio: seemed to decrease the protein:fat ratio

B2: pGH: purified porcine growth hormone (pGH) (protein, UniProt P01248 27-216, looked up)
Somatotropin: FPAMPLSSLFANAVLRAQHLHQLAADTYKEFERAYIPEGQRYSIQNAQAAFCFSETIPAPTGKDEAQQRSDVELLRFSLLLIQSWLGPVQFLSRVFTNSLVFGTSDRVYEKLKDLEEGIQALMRELEDGSPRAGQILKQTYDKFDTNLRSDDALLKNYGLLSCFKKDLHKAETYLRVMKCRRFVESSCAF
[12]
  carcass fat content, reduction: 18-25%
  feed conversion, improvement: 7-19%
  growth rate, increase: 10-14%
  muscle mass, increase: 24-36%
